Laboratory results: patent EP2140864A2 (H. Lundbeck A/S, priority 2001, dated 2002)
Marks after values point to notes of the source that are not given here.

Legend:
[1] = tested on: Male albino Sprague-Dawley rats; experiment: Rat Social Interaction Test (SIT); format: in vivo; conditions: for Grooming bouts / Rearing / Squares Crossed / Social Interaction: one hour before test; for Social Interaction: unfamiliar cage mates in a familiar arena
[2] = tested on: Male Sprague-Dawley rats; experiment: Rat Forced Swim Test (FST); format: in vivo; conditions: for Climbing / Diving / Immobility / Swimming: single administration, 1 hr. before test
Protocol: The procedure used in this study was similar to that previously described (Porsolt, et al., 1978), except the water depth (30 cm in this procedure). The greater depth in this test prevented the rats from supporting themselves by touching the bottom of the cylinder with their feet. Swim sessions were conducted by placing rats in individual plexiglass cylinders (46 cm tall x 20 cm in diameter) containing 23-25°C water 30 cm deep (Porsolt, et al. used a depth of only 15 cm; also, see Detke, et al., 1995). Two swim tests were conducted always between 1200 and 1800 hours: an initial 15-min pretest followed 24 h later by a 5-minute test. […] All other test sessions were conducted between 1300 to 1700 hours. Following all swim sessions, rats were removed from the cylinders, dried with paper towels and placed in a heated cage for 15 minutes and returned to their home cages. All test sessions were videotaped using a Panasonic color video camera and recorder for scoring later.
Male Sprague-Dawley rats (Taconic Farms, NY) were used in all experiments. Rats were housed in pairs and maintained on a 12:12-h light-dark cycle. Rats were handled for 5 minutes each day for 5 days prior to behavioral testing.
The rat's behavior was rated at 5 second intervals during the 5 minute test as one of the following: • 1. Immobility- rat remained floating in the water without struggling and was only making those movements necessary to keep its head above water; • 2. Climbing - rat was making active movements with its forepaws in and out of the water, usually directed against the walls; • 3. Swimming - rat was making active swimming motions, more than necessary to merely maintain its head above water, e.g. moving around in the cylinder; and • 4. Diving - entire body of the rat was submerged.
All of the behavior scoring was done by a single rater, who was blind to the treatment condition. The rater was also present in the room throughout the entire test period.
All injections were given using 1 cc tuberculin syringe with 26 3/8 gauge needles (Becton-Dickinson, VWR Scientific, Bridgeport, NJ). The volume of injection was 1 ml/kg.
The drugs were dissolved in 100% N,N-dimethylacetamide. All administrations were given using 1 cc tuberculin syringes, to which a 3 inch, curved, stainless steel gavage needle was attached. The volume of administration was 1 ml/kg.
The compounds were dissolved in 100% N,N-dimethylacetamide. All administrations were given using 1 cc tuberculin syringes, to which a 3 inch, curved, stainless steel gavage needle was attached. The volume of administration was 1 ml/kg.
The forced swim test data (immobility, swimming, climbing, diving) were subjected to a randomized, one-way ANOVA and post hoc tests conducted using the Student-Newman-heuls test. The data were analyzed using the GBSTAT program, version 6.5 (Dynamics Microsystems, Inc., Silver Spring, MD, 1997). All data are presented as means ± S.E.M.

[3] = target: T1, human GAL1 receptor (Homo sapiens, UniProt P47211); experiment: Radioligand binding at cloned human GAL1 receptor; conditions: pyrimidines, read-out: Ki GalR1
T1 construct: expressed in transfected cells
T1 sequence (P47211 1-349): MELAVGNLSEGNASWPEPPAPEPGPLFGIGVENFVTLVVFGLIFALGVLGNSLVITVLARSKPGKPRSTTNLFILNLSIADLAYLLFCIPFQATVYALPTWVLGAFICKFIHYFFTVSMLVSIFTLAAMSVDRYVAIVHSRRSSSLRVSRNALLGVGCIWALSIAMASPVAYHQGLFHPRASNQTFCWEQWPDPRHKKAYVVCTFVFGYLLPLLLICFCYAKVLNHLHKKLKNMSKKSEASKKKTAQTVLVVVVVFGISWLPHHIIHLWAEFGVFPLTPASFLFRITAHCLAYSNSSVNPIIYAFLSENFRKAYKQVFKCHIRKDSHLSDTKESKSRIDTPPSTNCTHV
Procedure, shortened: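 Membranes from CHO cells stably expressing human GAL2 and LM(tk-) cells stably expressing human GAL1, resuspended in binding buffer (10 mM NaCl, 20 mM HEPES, pH 7.4). Binding data fitted by nonlinear regression.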

SMILES: Cc1ccc(Nc2cc(N3CCCCC3)nc(N3CCN(c4ncccc4C(F)(F)F)CC3)n2)cc1 [Example 34]
- Grooming bouts ([1]; 0.03 mg/kg p.o.): 4.0 ± 0.4^&
- Rearing ([1]; 0.03 mg/kg p.o.): 27 ± 3
- Squares Crossed ([1]; 0.03 mg/kg p.o.): 312 ± 23
- Social Interaction ([1]; 0.03 mg/kg p.o.): 62 ± 11 s
- Grooming bouts ([1]; 0.1 mg/kg p.o.): 7.6 ± 0.5^+
- Rearing ([1]; 0.1 mg/kg p.o.): 40 ± 5
- Squares Crossed ([1]; 0.1 mg/kg p.o.): 295 ± 40
- Social Interaction ([1]; 0.1 mg/kg p.o.): 66 ± 7 s
- Grooming bouts ([1]; 0.3 mg/kg p.o.): 7.2 ± 1.1
- Rearing ([1]; 0.3 mg/kg p.o.): 27 ± 2^S
- Squares Crossed ([1]; 0.3 mg/kg p.o.): 363 ± 17
- Social Interaction ([1]; 0.3 mg/kg p.o.): 53 ± 6 s
- Grooming bouts ([1]; 1 mg/kg p.o.): 7.3 ± 0.8
- Rearing ([1]; 1 mg/kg p.o.): 40 ± 1
- Squares Crossed ([1]; 1 mg/kg p.o.): 343 ± 15^@
- Social Interaction ([1]; 1 mg/kg p.o.): 69 ± 6 s
- increase in the duration of social interaction compared to vehicle ([1]; 0.03, 0.1, 0.3 or 1 mg/kg p.o., single administration): 2-2.6 fold
- Climbing ([2]; 0.3 mg/kg p.o.): 3.3 ± 0.7
- Diving ([2]; 0.3 mg/kg p.o.): 0.2 ± 0.1
- Immobility ([2]; 0.3 mg/kg p.o.): 45 ± 1.5^a
- Swimming ([2]; 0.3 mg/kg p.o.): 11.6 ± 0.9^d
- Climbing ([2]; 1 mg/kg p.o.): 5.0 ± 0.8^c
- Diving ([2]; 1 mg/kg p.o.): 0.3 ± 0.2
- Immobility ([2]; 1 mg/kg p.o.): 35 ± 1.9^b
- Swimming ([2]; 1 mg/kg p.o.): 19.6 ± 1.3^d,e
- Climbing ([2]; 3 mg/kg p.o.): 4.3 ± 0.8
- Diving ([2]; 3 mg/kg p.o.): 0.3 ± 0.3
- Immobility ([2]; 3 mg/kg p.o.): 35 ± 2.0^b
- Swimming ([2]; 3 mg/kg p.o.): 20.8 ± 1.3^d,e
- Climbing ([2]; 10 mg/kg p.o.): 2.0 ± 0.4
- Diving ([2]; 10 mg/kg p.o.): 0.4 ± 0.3
- Immobility ([2]; 10 mg/kg p.o.): 49 ± 1.4
- Swimming ([2]; 10 mg/kg p.o.): 8.2 ± 1.2
- antidepressant profile in the FST (conclusion) ([2]; overall conclusion of the study): resembles that of antidepressants
- Ki [3]: 0.912 µM
